“And” between values parts separate entries of the source, which are not always exact repeats. Equal entries are not always repeated. Where two headings read alike, the source gives them in different places.
Target: T1, GBA2 (Homo sapiens, UniProt Q9HCG7)
T1 sequence (Q9HCG7 1-927): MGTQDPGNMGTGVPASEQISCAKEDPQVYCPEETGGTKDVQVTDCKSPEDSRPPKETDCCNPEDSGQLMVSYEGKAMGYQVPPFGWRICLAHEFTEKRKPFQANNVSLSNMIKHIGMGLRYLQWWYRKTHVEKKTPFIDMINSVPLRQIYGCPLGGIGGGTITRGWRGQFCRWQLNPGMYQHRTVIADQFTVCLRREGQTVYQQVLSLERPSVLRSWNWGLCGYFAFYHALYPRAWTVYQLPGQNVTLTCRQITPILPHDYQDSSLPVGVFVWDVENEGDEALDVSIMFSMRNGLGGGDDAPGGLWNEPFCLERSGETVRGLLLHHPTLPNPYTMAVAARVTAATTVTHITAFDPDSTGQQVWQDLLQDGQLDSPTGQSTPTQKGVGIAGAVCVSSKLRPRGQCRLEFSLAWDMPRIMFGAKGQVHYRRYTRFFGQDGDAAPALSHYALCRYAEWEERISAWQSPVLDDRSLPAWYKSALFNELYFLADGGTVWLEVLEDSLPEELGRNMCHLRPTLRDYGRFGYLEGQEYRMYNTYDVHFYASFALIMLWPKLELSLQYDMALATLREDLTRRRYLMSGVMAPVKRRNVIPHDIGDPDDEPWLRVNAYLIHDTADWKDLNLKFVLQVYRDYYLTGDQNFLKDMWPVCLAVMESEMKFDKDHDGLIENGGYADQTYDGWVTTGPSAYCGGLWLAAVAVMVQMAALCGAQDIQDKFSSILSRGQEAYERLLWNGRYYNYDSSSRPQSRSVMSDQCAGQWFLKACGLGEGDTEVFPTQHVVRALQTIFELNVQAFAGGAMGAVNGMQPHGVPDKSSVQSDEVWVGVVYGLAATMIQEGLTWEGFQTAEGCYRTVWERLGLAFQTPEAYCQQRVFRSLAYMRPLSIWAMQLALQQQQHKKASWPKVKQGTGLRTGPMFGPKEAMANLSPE
Experiment: 4MU fluorogenic substrate assay for apparent IC50, GBA2
Type: biochemical
Design: expressed in transfected cells; host or cells: HEK293T GBA1/GBA2 KO (CRISPR/Cas9), GBA2 overexpressed
Conditions: 4MU-β-D-Glc
From the text: To identify an ABP that selectively labels human GBA2 over GBA1 and GBA3, a library of cyclophellitol-based ABPs with varying configurations (ESI Fig. S1 ^†) was screened for their selectivity towards human retaining β-glucosidases. For this purpose, we initially assessed the inhibition properties of the compounds using recombinant human GBA1 (rhGBA1, imiglucerase), lysates of cells overexpressing GBA2 or GBA3 (both in combination with knockout of the other retaining β-glucosidases). In a preliminary screen, enzymes were pre-incubated for 30 min with the tested compounds, followed by the addition of the fluorogenic substrate, 4MU-β-D-Glc, and subsequent quantification of released fluorescent 4MU after 30 minutes. This screening brought our attention to a new set of β-D-Araf cyclitol aziridines as potential GBA2 inhibitors. […] On the other hand, the biotin-tagged β-D-Araf compound 6 is a poor inhibitor of all three glucosidases (apparent IC50 > 8 μM). Arabinofuranosyl cyclitol 12–20 with various configurations (α-L-Araf and β-L-Araf) were also evaluated (ESI Fig. S1 ^†).
Recombinant human GBA1 (rhGBA1, Imiglucerase) was kindly provided by Sanofi Genzyme (Cambridge, MA, USA). 4-Methylumbelliferyl-β-D-glucopyranoside substrates were purchase from Glycosynth (Warrington Cheshire, UK). Protein concentration was measured using the Pierce BCA assay kit (Thermo Fisher Scientific, Waltham, MA, USA). Harvested cells (cell pellets), cell lysates and tissue homogenates not used directly were stored at -80 °C.
HEK293T (CRL‐3216™) cells were purchased from ATCC (Manassas, VA, USA). HEK293T cells were cultured in DMEM medium (Sigma‐Aldrich), supplied with 10% (v/v) FCS, 0.1% (w/v) penicillin/streptomycin and 1% (v/v) Glutamax, under 37 °C and 5% or 7% CO2. […]
2.3 Generation of cells genetically modified for β-glucosidase expression For overexpression of the different β-glucosidases, "wildtype" HEK293T cells, HEK293T cells with GBA2 knockout (KO) or HEK293T cells with both GBA1 and GBA2 KO were used, following by the overexpression (OE) of targeted β-glucosidases using the constructs as described in references.1,2 Either GBA2 or GBA3 were overexpressed in GBA1/GBA2 KO HEK293T (generated by the CRISPR/Cas9 method2) to generate GBA1/2 KOs with GBA2 (or GBA3) for overexpression in HEK293T cells as indicated, or using "wildtype" HEK293T cells containing endogenous GBA1 and GBA2 to overexpress both GBA2 and GBA3, these were generated as described in our previous report.1,2 […]
Cells were cultured with the method described above to 80-90% confluency, and were isolated, washed with Dulbecco′s phosphate buffered saline (PBS) and subsequently collected using the following method.3 HEK293T and RPE-1 cells were easily detached from the culture plate by trypsin treatment after which some DMEM medium was added. The cells were collected by pipetting and DMEM medium was removed by centrifuging. The cells were washed with cold PBS three times, after which they were centrifuged to remove PBS and then stored at –80 °C for further use or lysed in potassium phosphate buffer (K2HPO4-KH2PO4, 25 mM, pH 6.5, supplemented with 0.1% (v/v) Triton X-100 and protease inhibitor cocktail (EDTA-free, Roche, Basel, Switzerland)) by sonication with a Polytron PT 1300D sonicator (Kinematica, Luzern, Switzerland). After sonication, lysed mixtures were centrifuged at 10,000 x g for 3 min at 4°C, and the supernatants where desired β-glucosidases exist were used for the experiment.
2.5 4MU fluorogenic substrate assay for apparent IC50 determination
4MU fluorogenic substrate assays (using recombination human rhGBA1 or lysates of HEK293T cells) were conducted in 96-well plates at 37 °C. Samples were diluted with McIlvaine buffer (150 mM citric acid-Na2HPO4) to a final volume of 25 μL, at the appropriate pH for each enzyme. Assays were performed by incubating the samples with 100 μL 4-methylumbelliferyl-β-D-glucopyranoside substrate diluted in McIlvaine buffer for a period of 30 min. […]

[1] = GBA1/GBA2 KO GBA2 OE HEK293T cell lysate, 30 min pre-incubation, pH 5.8, n = 3 for β-D-Araf, n = 1 for α-L-Araf and β-L-Araf, read-out: Apparent IC50 GBA2
[2] = Apparent IC50 GBA2, GBA1/GBA2 KO GBA2 OE HEK293T cell lysate, 30 min pre-incubation, pH 5.8, n = 3 for β-D-Araf, n = 1 for α-L-Araf and β-L-Araf

Row | Structure (SMILES) | IC50 [1] [nM] | IC50 [2] | further results
1 | [N-]=[N+]=NCCCCCCCCN1[C@@H]2[C@H](CO)[C@@H](O)[C@H](O)[C@@H]21 (stereo partly drawn) [Compound 2, β-D-arabinofuranosyl cyclitol aziridine-azidooctyl] | 630 | – | –
2 | CC1=CC(C)=[N+]2C1=C(CCCCc1cn(CCCCCCCCN3[C@@H]4[C@H](CO)[C@@H](O)[C@H](O)[C@@H]43)nn1)c1c(C)cc(C)n1[B-]2(F)F (some centres unmarked) [ABP 3] | – | 120 to 160 nM and 124 nM | –
3 | COc1ccc(C2=[N+]3C(=C(CCCCc4cn(CCCCCCCCN5[C@@H]6[C@H](CO)[C@@H](O)[C@H](O)[C@@H]65)nn4)c4ccc(-c5ccc(OC)cc5)n4[B-]3(F)F)C=C2)cc1 (some centres unmarked) [ABP 4] | – | 120 to 160 nM and 162 nM | –
4 | OC[C@@H]1[C@@H](O)[C@H](O)[C@@H]2N[C@H]12 [Compound 1, β-D-Arabinofuranosyl cyclitol aziridine] | > 50000 | – | IC50 (30 min pre-incubation, read-out: Apparent IC50 GBA2): > 50000 nM
5 | CN1/C(=C/C=C/C=C/C2=[N+](CCCCCC(=O)NCc3cn(CCCCCCCCN4[C@@H]5[C@H](CO)[C@@H](O)[C@H](O)[C@@H]54)nn3)c3ccccc3C2(C)C)C(C)(C)c2ccccc21 (some centres unmarked) [ABP 5] | – | 250 to 300 nM and 264 nM | –
6 | O=C(CCCC[C@@H]1SC[C@@H]2NC(=O)N[C@@H]21)NCc1cn(CCCCCCCCN2[C@@H]3[C@H](CO)[C@@H](O)[C@H](O)[C@@H]32)nn1 (some centres unmarked) [ABP 6] | – | 8480 ± 763 nM | IC50 (Apparent IC50 GBA2, 30 min pre-incubation): > 8000 nM

— paper PMC11375437, “Selective labelling of GBA2 in cells with fluorescent β-D-arabinofuranosyl cyclitol aziridines” (Chemical Science, 2024)
